Reference: the supplement of paper PMC10307832

Tests used:
Assay in all cases: relative viability (nuclei count vs DMSO), 5 days (fraction); higher = more cells survive
Trametinib + Alpelisib = compound: CC(=O)Nc1cccc(-n2c(=O)n(C3CC3)c(=O)c3c(Nc4ccc(I)cc4F)n(C)c(=O)c(C)c32)c1 [Trametinib] + Cc1nc(NC(=O)N2CCC[C@H]2C(N)=O)sc1-c1ccnc(C(C)(C)C(F)(F)F)c1 [Alpelisib] (partner 2 µM)
Summary of the method: (§1)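 Relative viability equals treated-well nuclei counts divided by vehicle-well nuclei counts. Counts came from 4× images of lung cancer cell lines grown in 1536-well plates for 5 days after pin-tool dosing on the day after seeding. Dosing used one drug alone or a fixed anchor-drug dose plus five library-drug doses (not always all listed) in √10 steps, and values are medians of duplicate plates.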

[1] = compound: CN1C=C(C2=CC=CC=C21)/C=C\3/C4=C(C=CC=N4)NC3=O + COc1cccc2cc(-c3nc([C@H]4CC[C@H](C(=O)O)CC4)n4ncnc(N)c34)[nH]c12 [OSI-027] (partner 0.5 µM)
Summary of the method: as §1

Trametinib + Phenformin = compound: CC(=O)Nc1cccc(-n2c(=O)n(C3CC3)c(=O)c3c(Nc4ccc(I)cc4F)n(C)c(=O)c(C)c32)c1 [Trametinib] + N=C(N)NC(=N)NCCc1ccccc1 [Phenformin] (partner 250 µM)
Summary of the method: as §1

[2] = compound: CN1C=C(C2=CC=CC=C21)/C=C\3/C4=C(C=CC=N4)NC3=O + CS(=O)(=O)N1CCN(Cc2cc3nc(-c4cccc5[nH]ncc45)nc(N4CCOCC4)c3s2)CC1 [Pictilisib] (partner 1 µM)
Summary of the method: as §1

| Cell Line | relative viability (Trametinib + Alpelisib; first compound 0.0025 µM) | relative viability (Trametinib + Alpelisib; first compound 0.007906 µM) | relative viability (Trametinib + Alpelisib; first compound 0.025 µM) | relative viability (Trametinib + Alpelisib; first compound 0.07906 µM) | relative viability (Trametinib + Alpelisib; first compound 0.25 µM) | relative viability ([1]; first compound 0.02 µM) | relative viability ([1]; first compound 0.06325 µM) | relative viability ([1]; first compound 0.2 µM) | relative viability ([1]; first compound 0.6325 µM) | relative viability ([1]; first compound 2 µM) | relative viability (Trametinib + Phenformin; first compound 0.0025 µM) | relative viability (Trametinib + Phenformin; first compound 0.007906 µM) | relative viability (Trametinib + Phenformin; first compound 0.025 µM) | relative viability (Trametinib + Phenformin; first compound 0.07906 µM) | relative viability (Trametinib + Phenformin; first compound 0.25 µM) | relative viability ([2]; first compound 0.02 µM) | relative viability ([2]; first compound 0.06325 µM) | relative viability ([2]; first compound 0.2 µM) | relative viability ([2]; first compound 0.6325 µM) | relative viability ([2]; first compound 2 µM) |
| --- | --- | --- | --- | --- | --- | --- | --- | --- | --- | --- | --- | --- | --- | --- | --- | --- | --- | --- | --- | --- |
| LU99A | 0.571 | 0.456 | 0.444 | 0.262 | 0.172 | 0.298 | 0.303 | 0.282 | 0.255 | 0.299 | 0.895 | 0.812 | 0.642 | 0.588 | 0.455 | 0.344 | 0.282 | 0.338 | 0.316 | 0.315 |
| NCI-H650 | 1.31 | 1.42 | 1.38 | 1.35 | 0.71 | 0.628 | 0.515 | – | 0.529 | 0.506 | 0.532 | 0.52 | 0.501 | 0.426 | 0.403 | 0.826 | 0.922 | – | 0.784 | 0.911 |
| NCI-H2347 | 0.96 | 0.552 | 0.346 | 0.38 | 0.36 | – | 0.347 | 0.483 | 0.552 | 0.378 | 0.225 | 0.125 | 0.233 | 0.164 | 0.143 | 0.527 | 0.704 | 0.572 | 0.438 | 0.658 |
| HARA | 0.758 | 0.657 | 0.44 | 0.498 | 0.241 | 0.539 | 0.449 | – | 0.505 | 0.586 | 0.399 | 0.426 | 0.386 | 0.373 | 0.214 | 0.55 | 0.391 | 0.407 | 0.254 | 0.379 |
| NCI-H2228 | 0.749 | 0.527 | 0.488 | 0.331 | 0.194 | 0.576 | 0.452 | – | – | 0.462 | 0.319 | 0.225 | 0.152 | 0.161 | 0.138 | 0.378 | 0.371 | – | 0.327 | 0.27 |
| EKVX | 0.832 | 0.638 | 0.629 | 0.444 | 0.343 | 0.589 | 0.434 | 0.855 | 0.682 | 0.627 | 0.234 | 0.209 | 0.198 | 0.192 | 0.24 | 0.374 | 0.384 | 0.334 | 0.345 | 0.361 |
| HCC-827 | 1.01 | 0.753 | 0.699 | 0.591 | 0.399 | 0.771 | 0.662 | – | 0.804 | 0.721 | 0.374 | 0.373 | 0.334 | 0.313 | 0.313 | 1.07 | 0.996 | – | 0.772 | 1 |
| NCI-H1755 | 0.798 | 0.83 | 0.799 | 0.802 | 0.753 | 0.619 | 0.654 | 0.655 | 0.683 | 0.644 | 0.593 | 0.587 | 0.608 | 0.594 | 0.512 | 0.405 | 0.342 | 0.302 | 0.365 | 0.37 |
| NCI-H661 | 0.607 | 0.654 | 0.411 | 0.257 | 0.264 | 0.751 | 0.689 | 0.722 | 0.676 | 0.76 | 0.298 | 0.289 | 0.257 | 0.28 | 0.246 | 0.399 | 0.418 | 0.325 | 0.339 | 0.375 |
| NCI-H1944 | 0.716 | 0.603 | 0.532 | 0.463 | 0.325 | 0.433 | 0.368 | – | 0.423 | 0.351 | 0.187 | 0.159 | 0.152 | 0.148 | 0.137 | 0.323 | 0.326 | – | 0.294 | 0.314 |
| NCI-H23 | 0.635 | 0.509 | 0.264 | 0.349 | 0.208 | 0.497 | 0.555 | 0.459 | 0.538 | 0.517 | 0.782 | 0.738 | 0.312 | 0.583 | 0.303 | 0.5 | 0.502 | – | 0.451 | 0.485 |
| HCC-366 | 0.214 | 0.241 | 0.182 | 0.143 | 0.0782 | 0.678 | 0.89 | 0.52 | 0.852 | 0.75 | 0.57 | 0.574 | 0.372 | 0.49 | 0.226 | 0.114 | 0.121 | 0.118 | 0.113 | 0.104 |
| LCLC-97TM1 | 0.216 | 0.199 | 0.146 | 0.183 | 0.11 | 0.372 | 0.447 | 0.542 | 0.476 | 0.482 | 0.415 | 0.448 | 0.383 | 0.301 | 0.288 | 0.159 | – | – | 0.216 | 0.131 |
| EMC-BAC-2 | 0.645 | 0.641 | 0.562 | 0.568 | 0.497 | 0.388 | 0.384 | 0.391 | 0.405 | 0.362 | 0.582 | 0.565 | 0.443 | 0.475 | 0.31 | 0.499 | 0.521 | 0.524 | 0.521 | 0.554 |
| NCI-H441 | 0.836 | 0.659 | 0.638 | 0.533 | 0.33 | 0.557 | 0.646 | 0.739 | 0.607 | 0.459 | 0.744 | 0.836 | 0.501 | 0.561 | 0.252 | 0.477 | 0.426 | 0.474 | 0.402 | 0.595 |
| LCLC-103H | 0.974 | 0.875 | 0.665 | 0.81 | 0.624 | 0.402 | 0.416 | 0.494 | 0.509 | 0.461 | 0.319 | 0.349 | 0.318 | 0.269 | 0.307 | 0.721 | 0.672 | 0.553 | 0.53 | 0.584 |
| HOP-62 | 0.813 | 0.984 | 0.525 | 0.377 | 0.166 | 0.712 | 0.873 | 0.645 | 0.875 | 0.846 | 0.692 | 0.643 | 0.441 | 0.331 | 0.209 | 0.729 | 1.05 | 0.475 | 0.627 | 0.937 |
